Broadly, the IC50 is the point on the concentration scale where inhibition reaches its midpoint. Higher therefore signals weaker potency in that assay. As a reminder, the inhibition is the change of the read-out against control, counted positive when it falls.

The test system of test [1] is MIA-PACA2 pancreatic cancer cell lines. Briefly: Cell proliferation assay (CellTiter 96 AQueous One). The format is cell-based. The settings on record: Homo sapiens, MIA PaCa-2; for IC50: MIA-PACA2, compound tested under both conditions, which assay gave the IC50 is not stated; for inhibition at 30 µM: MIA-PACA2.
Test [2] shares this test system. Briefly: Cell proliferation assay, alternate assay conditions (DAPI fluorescence). It counts as cell-based. The settings on record: Homo sapiens, MIA PaCa-2; for inhibition at 10 µM: * = tested at 10 μM, alternate conditions, MIA-PACA2; for IC50: MIA-PACA2, same assay as the % inhibition (alternate conditions). As to the method:
Cell lines: Tumor-derived pancreatic cancer cell lines MIA-PACA2 were purchased from ATCC and grown in complete DMEM-High Glucose medium supplemented with penicillin (100 U/mL), streptomycin (100 μg/mL), and 10% heat-inactivated FBS at 37° C. in a humidified incubator with 5% CO2.
Method: Cells are plated at 4000 cells/well density in 96-wells plate. The next day tested small molecules are added to the cells in the final concentration of 10 μM in the presence of 0.3% DMSO and 10% FBS. After small molecules addition, cells are incubated for 4 days at 37° C. in a humidified incubator with 5% CO2. For IC50 value determination, serial dilutions of compounds were added to cells under the same conditions.
Assay: At the end of the incubation period, cell cultures are fixed with a 50-50 mixture (v/v) acetone-methanol for 10 minutes at −20° C., followed by rehydration in PBS for 10 minutes at room temperature. After rehydration, cells are stained with DAPI (1 μg/ml) in PBS for 10 minutes at room temperature, followed by 3 washes with PBS. After staining, DAPI fluorescence is recorded (358 nm excitation/461 nm emission) with the 96-well plate reader Molecular Devices Spectramax M3; degree of small mole-cule-dependent proliferation inhibition is calculated from raw data assuming No Serum cells value as 100%.

Test [3] concerns the target GTP binding domain of Ras. The settings on record: literature, kinetic and filter binding measurements with radiolabeled GDP and GTP; cited from earlier work.

With `COCc1ccc(-c2csc3c(O)nc(-c4ccccn4)nc23)cc1F` [drawing 1722], in test [1], the concentration for half-maximal inhibition (IC50) was less than 100 nM and the inhibition at 30 µM fell in the range of 76 to 100%. Further, the inhibition at 10 µM in test [2] was in the range of 76 to 100%. For `Oc1nc(-c2ccccn2)nc2c(-c3ccccn3)csc12` [drawing 1772], in test [1], the concentration for half-maximal inhibition (IC50) was greater than 1000 nM and the inhibition at 30 µM was 76 to 100%. For the same molecule, the inhibition at 10 µM in test [2] was 76 to 100%. In test [1], `Oc1nc(-c2ccccn2)nc2c(-c3cccc(C(F)(F)F)c3)csc12` [drawing 1749] came in with a half-inhibitory concentration (IC50) of 100 to 500 nM and an inhibition at 30 µM of 76 to 100%. This molecule had an inhibition at 10 µM in test [2] of 76 to 100%.

Take `CC(C)COc1ccc(-c2csc3c(O)nc(-c4ccccn4)nc23)cn1` [drawing 1753]: in test [1], the IC50 lay in the range of 501 to 1000 nM and the inhibition at 30 µM fell in the range of 76 to 100%. This molecule also had an inhibition at 10 µM in test [2] of 76 to 100%.

As to `Cc1sc2c(O)nc(-c3ccccn3)nc2c1C(=O)N1CCN(c2ccccc2)CC1` [drawing 1807], the inhibition at 10 µM in test [2] fell in the range of 76 to 100%. The molecule `Cc1nn(C(C)C)cc1-c1csc2c(O)nc(-c3ccccn3)nc12` [drawing 1803] returned an inhibition at 10 µM in test [2] of 76 to 100%. Consider `COCCNc1nc(-c2ccccn2)nc(-c2cccc(OCCN(C)C)c2)c1Oc1ccccc1` [drawing 1831], for which the inhibition at 10 µM in test [2] was in the range of 76 to 100%. For `Nc1nc2c(ncn2[C@@H]2O[C@H](COP(=O)(O)OP(=O)(O)O)[C@@H](O)[C@H]2O)c(=O)[nH]1` [GDP], the “affinity for the GTP binding domain of Ras” value in test [3] is on record as “single to double digit picomolar”. For the molecule `Oc1nc(-c2ccccn2)nc2cc(-c3ccncc3)sc12` [drawing 1863], the inhibition at 10 µM in test [2] was 76 to 100%.

The molecule `Cc1sc2c(O)nc(-c3ccccn3)nc2c1Br` [drawing 1824] yielded an inhibition at 10 µM in test [2] of 76 to 100%. On the same count and under the same terms, in the case of `OCC1(c2ccc(-c3nc(-c4ccccn4)nc(O)c3Oc3ccccc3)cc2)CC1` [drawing 1836] it was 76 to 100%; in that of `Cc1sc2c(O)nc(-c3ccccn3)nc2c1C(=O)N1CCN(c2ccccc2)CC1C` (centres unmarked) [drawing 1808], 76 to 100%; in that of `COCCNc1nc(-c2cn(C)cn2)nc2sc(C)c(-c3ccccc3)c12` [drawing 1887], 76 to 100%. Consider `Cn1ccnc1-c1nc(O)c2scc(-c3cccc(OC(F)(F)F)c3)c2n1` [drawing 1905], for which, in test [2], the inhibition at 10 µM lay in the range of 76 to 100% and the IC50 fell in the range of 100 to 500 nM.

In the case of `Oc1nc(-c2ccccn2)nc2c(-c3cncc(C(F)F)c3)csc12` [drawing 1804], the inhibition at 10 µM in test [2] was in the range of 76 to 100%.

The molecule `Oc1nc(-c2ccccn2)nc2c(C3CC3)csc12` [drawing 1820] gave an inhibition at 10 µM in test [2] of 76 to 100%. In the case of `CC(C)COc1ccc(-c2c(-c3ccccc3)sc3c(O)nc(-c4nccn4C)nc23)cn1` [drawing 1889], in test [2], the inhibition at 10 µM was in the range of 76 to 100% and the half-inhibitory concentration (IC50) lay in the range of 100 to 500 nM. With `Cc1sc2c(O)nc(-c3nccn3C)nc2c1-c1ccccc1` [drawing 1896], in test [2], the inhibition at 10 µM was 76 to 100%.

`CN(C)CCOc1cccc(-c2csc3c(O)nc(-c4ccccn4)nc23)c1` [drawing 1798] yielded an inhibition at 10 µM in test [2] of 76 to 100%.

`Cn1ccnc1-c1nc(O)c2scc(-c3cccc(Cl)c3)c2n1` [drawing 1919]: in test [2], the inhibition at 10 µM lay within 76 to 100%. In test [2], `COCCN(C)c1nc(-c2nccn2C)nc2sc(-c3ccccc3)c(-c3ccccc3)c12` [drawing 1868] displayed an inhibition at 10 µM of 76 to 100% and an IC50 greater than 1000 nM. Regarding `COc1ccc(-c2c(C)sc3c(O)nc(-c4nccn4C)nc23)cn1` [drawing 1903], in test [2], the inhibition at 10 µM is 25 to 50%.

In the case of `Cc1sc2c(O)nc(-c3ccccn3)nc2c1-c1ccncc1` [drawing 1806], the inhibition at 10 µM in test [2] lay in the range of 76 to 100%. Still for that read-out and setting: in the case of `CC(C)(C)c1sc2c(O)nc(-c3ccccn3)nc2c1Br` [drawing 1856] it was 76 to 100%. Regarding `COCCNc1nc(-c2cn(C)cn2)nc2sc(-c3ccncc3)c(-c3ccccc3)c12` [drawing 1832], the inhibition at 10 µM in test [2] fell in the range of 76 to 100%.

`Nc1nc(-c2ccccn2)nc(C(=O)NCCc2ccncc2)c1Oc1ccccc1` [drawing 1853] came in with an inhibition at 10 µM in test [2] of 76 to 100%.

In test [2], `Oc1nc(-c2ccncn2)nc2c(-c3cccc(C(F)(F)F)c3)csc12` [drawing 1909] came in with an inhibition at 10 µM of 76 to 100% and an IC50 greater than 1000 nM. For `CC(C)Cc1csc2c(O)nc(-c3ccccn3)nc12` [drawing 1813], the inhibition at 10 µM in test [2] lay within 76 to 100%.

Turning to `COCCCNc1nc(-c2nccn2C)nc2sc(-c3ccccc3)c(-c3ccccc3)c12` [drawing 1872], in test [2], the inhibition at 10 µM lay within 76 to 100% and the concentration for half-maximal inhibition (IC50) lay in the range of 501 to 1000 nM. With `COc1ccc(-c2cc3nc(-c4ccccn4)nc(O)c3s2)cc1` [drawing 1865], the inhibition at 10 µM in test [2] was in the range of 76 to 100%. As to `CC(C)Oc1ccc(-c2c(-c3ccccc3)sc3c(O)nc(-c4nccn4C)nc23)cc1F` [drawing 1913], the inhibition at 10 µM in test [2] fell in the range of 76 to 100%.

For `Nc1nc(O)c2sc(-c3cccc(C(=O)N4CCC(O)C4)c3)cc2n1` (centres unmarked) [drawing 1845], in test [2], the inhibition at 10 µM is 1 to 25%.

`Oc1nc(-c2ccccn2)nc2c1c(-c1ccccc1)nn2-c1ccccn1` [drawing 1841] registered an inhibition at 10 µM in test [2] of 76 to 100%.

Consider `COC(=O)c1c(C)sc2c(O)nc(-c3ccccn3)nc12` [drawing 1810], for which, in test [2], the inhibition at 10 µM lay in the range of 25 to 50%.

In test [2], `Cn1cnc(-c2nc(O)c3scc(-c4cccc(C(F)(F)F)c4)c3n2)c1` [drawing 1906] registered an inhibition at 10 µM of 76 to 100%. As for `COc1cnc(-c2cn(C)cn2)nc1O` [drawing 1814], in test [2], the inhibition at 10 µM fell in the range of 1 to 25%. Take `COc1nc(-c2cn(C)cn2)nc2sc(-c3ccncc3)c(-c3ccccc3)c12` [drawing 1833]: the inhibition at 10 µM in test [2] was 76 to 100%.

In test [2], `Cn1ccnc1-c1nc(O)c2sc(-c3ccccc3)c(-c3cccc(C(F)(F)F)c3)c2n1` [drawing 1894] gave an inhibition at 10 µM of 25 to 50%. Turning to `COc1cnc(-c2cnc[nH]2)nc1O` [drawing 1818], the inhibition at 10 µM in test [2] is 0%. For the molecule `CC(C)COc1ccc(-c2csc3c(O)nc(-c4nccn4C)nc23)cn1` [drawing 1914], in test [2], the inhibition at 10 µM was 76 to 100% and the IC50 is 100 to 500 nM.

In test [2], `Cc1sc2c(O)nc(-c3nccn3C)nc2c1-c1ccccc1Cl` [drawing 1904] displayed an inhibition at 10 µM of 76 to 100% and an IC50 of 100 to 500 nM. In test [2], `COCCNc1nc(-c2nccn2C)nc2sc(-c3ccccc3)c(-c3ccc(OC)cc3)c12` [drawing 1891] displayed an inhibition at 10 µM of 76 to 100% and an IC50 of 501 to 1000 nM. In turn, `Nc1nc(O)c2sc(-c3cccc(C(=O)NCc4ncc[nH]4)c3)cc2n1` [drawing 1847] gave an inhibition at 10 µM in test [2] of 1 to 25%. Still for that read-out and setting: in the case of `O=C(NCCc1ccncn1)c1csc2nc(-c3ccccn3)nc(N3CCOCC3)c12` [drawing 1796] it was 1 to 25%; in that of `COC(=O)c1nc(-c2ccccn2)nc(O)c1O` [drawing 1849], 25 to 50%; in that of `CCN(CC)CCOc1nc(-c2nccn2C)nc2sc(-c3ccccc3)c(-c3ccccc3)c12` [drawing 1875], 76 to 100%. Molecule `Oc1nc(-c2ccccn2)nc2c(CC3CCNC3)csc12` (centres unmarked) [drawing 1828] yielded an inhibition at 10 µM in test [2] of 0%. Regarding `COc1cnc(CNC(=O)c2csc3c(O)nc(-c4ccccn4)nc23)[nH]c1=O` [drawing 1822], the inhibition at 10 µM in test [2] lay within 51 to 75%. The molecule `COc1cnc(CNC(=O)c2csc3nc(-c4ccccn4)nc(N)c23)[nH]c1=O` [drawing 1819] registered an inhibition at 10 µM in test [2] of 0%. On the same count and under the same terms, in the case of `Oc1nc(-c2ccccn2)nc2c(-c3cc(CN4CCCC4)ccc3F)csc12` [drawing 1799] it was 76 to 100%; in that of `COCCNc1nc(-c2cccc(N)n2)nc2sc(-c3ccccc3)c(-c3ccccc3)c12` [drawing 1893], 76 to 100%; in that of `Nc1cccc(-c2csc3c(O)nc(-c4ccccn4)nc23)n1` [drawing 1816], 76 to 100%. With `O=C(c1csc2c(O)nc(-c3ccccn3)nc12)N1CCNC(c2ccc(Cl)cc2)C1` (centres unmarked) [drawing 1827], the inhibition at 10 µM in test [2] lay within 76 to 100%. In test [2], `Cn1ccnc1-c1nc(O)c2scc(-c3cccc(C(F)(F)F)c3)c2n1` [drawing 1900] returned an inhibition at 10 µM of 76 to 100% and a 50% inhibitory concentration (IC50) greater than 1000 nM. In test [2], `Cc1sc2c(O)nc(-c3ccccn3)nc2c1-c1ccccc1Cl` [drawing 1817] yielded an inhibition at 10 µM of 76 to 100%. In the case of `COCCNc1nc(-c2nccn2C)nc2sc(-c3ccccc3)c(-c3ccccn3)c12` [drawing 1924], in test [2], the inhibition at 10 µM was in the range of 76 to 100% and the IC50 lay in the range of 501 to 1000 nM.

These data come from patent publication US10940139B2, “Compounds that interact with the Ras superfamily for the treatment of cancers, inflammatory diseases, rasopathies, and fibrotic disease” (Shy Therapeutics LLC, priority 2017, dated 2021).
